Experimental data as given in patent US11242337B2, “Compounds useful for treating gastrointestinal tract disorders” (Ardelyx, Inc., priority 2017, dated 2022).
Counter-ions that a name gives are not always drawn.

Columns and labels:
NHE3 [1] = target: T1, NHE3 (Homo sapiens, UniProt P48764); assay: Cell-based assay of NHE-3 activity (pre-incubation inhibition), human; settings: human Preincubation
T1 construct: expressed in transfected cells
T1 sequence (P48764 26-834): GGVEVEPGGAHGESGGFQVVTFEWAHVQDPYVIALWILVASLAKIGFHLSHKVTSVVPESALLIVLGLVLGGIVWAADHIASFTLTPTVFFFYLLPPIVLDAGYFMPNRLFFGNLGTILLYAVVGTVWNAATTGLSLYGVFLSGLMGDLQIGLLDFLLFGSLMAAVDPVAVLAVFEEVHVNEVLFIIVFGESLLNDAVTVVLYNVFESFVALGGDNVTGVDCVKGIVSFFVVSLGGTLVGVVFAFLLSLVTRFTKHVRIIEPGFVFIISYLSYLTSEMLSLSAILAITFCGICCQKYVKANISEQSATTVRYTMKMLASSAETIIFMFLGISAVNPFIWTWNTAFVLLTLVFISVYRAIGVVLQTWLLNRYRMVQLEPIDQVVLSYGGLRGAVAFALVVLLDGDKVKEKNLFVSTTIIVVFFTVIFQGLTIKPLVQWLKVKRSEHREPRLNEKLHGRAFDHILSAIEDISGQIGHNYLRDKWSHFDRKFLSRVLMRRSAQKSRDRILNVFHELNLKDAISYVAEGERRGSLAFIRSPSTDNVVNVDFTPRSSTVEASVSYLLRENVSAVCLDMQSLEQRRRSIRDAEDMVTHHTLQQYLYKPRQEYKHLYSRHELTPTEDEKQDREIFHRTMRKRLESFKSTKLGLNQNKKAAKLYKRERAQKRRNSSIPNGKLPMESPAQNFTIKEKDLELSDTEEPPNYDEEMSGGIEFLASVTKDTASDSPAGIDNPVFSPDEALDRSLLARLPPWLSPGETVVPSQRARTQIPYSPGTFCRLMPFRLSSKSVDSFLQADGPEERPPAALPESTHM
T1 sequence (Q99653 2-195 partner limits assumed): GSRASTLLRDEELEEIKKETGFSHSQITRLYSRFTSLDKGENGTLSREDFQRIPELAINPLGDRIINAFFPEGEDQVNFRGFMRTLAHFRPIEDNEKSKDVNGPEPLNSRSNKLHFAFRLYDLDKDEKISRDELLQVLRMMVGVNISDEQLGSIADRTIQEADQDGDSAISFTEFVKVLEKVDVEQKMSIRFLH
How it was run: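 PS120 fibroblasts stably expressing human NHE3 and NHERF2, loaded 30 min at 37 °C with 5 μM BCECF-AM in NH4Cl buffer, then acidified 10 min at room temperature in Na+-free buffer with 0–30 μM compound. Initial rate of BCECF fluorescence ratio change (FLIPR) per minute taken as Na+/H+ activity.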

NHE3 [2] = target: T1, NHE3; assay: Cell-based assay of NHE-3 activity (persistent inhibition), human; settings: human Persistence, 60 min incubation then washout
How it was run: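 PS120 fibroblasts expressing human NHE3 with NHERF2 exposed to 0-30 μM compound for 60 min at RT, then washed out; cells acid-loaded by NH4Cl prepulse with BCECF-AM and Na+-free buffer. Na+-driven pH recovery started 10 min post-washout; initial rate of BCECF ratio change (FLIPR) taken as activity.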

SMILES	% inhibition (NHE3 [1])	pIC50 (NHE3 [1]; 0-30 μM test compound)	% inhibition (NHE3 [2])	pIC50 (NHE3 [2])	IC50 (NHE3 [1]; 0-30 μM test compound) [nM]	IC50 (NHE3 [2]) [nM]
N[C@@H]1CCCN([C@H]2Cc3c(Cl)cc(Cl)cc3[C@@H]2Oc2ccc(S(=O)(=O)N3CCC(OCCOCCNC(=O)NCCCCNC(=O)NCCOCCOC4CCN(S(=O)(=O)c5ccc(O[C@H]6c7cc(Cl)cc(Cl)c7C[C@@H]6N6CCC[C@@H](N)C6)cc5)CC4)CC3)cc2)C1 [Example 95, 3-[2-[2-([1-[(4-[[(1S,2S)-2-[(3R)-3-Aminopiperidin-1-yl]-4,6-dichloro-2,3-dihydro-1H-inden-1-yl]oxy]benzene)sulfonyl]piperidin-4-yl]oxy)ethoxy]ethyl]-1-[4-[([2-[2-([1-[(4-[[(1S,2S)-2-[(3R)-3-aminopiperidin-1-yl]-4,6-dichloro-2,3-dihydro-1H-inden-1-yl]oxy]benzene)sulfonyl]piperidin-4-yl]oxy)ethoxy]ethyl]carbamoyl)amino]butyl]urea]	C (>70%)	C (NHE3 pIC50 > 7)	C (>70%)	C (NHE3 pIC50 > 7)		
C[C@@H](COCCOCCNC(=O)NCCCCNC(=O)NCCOCCOC[C@H](C)NS(=O)(=O)c1ccc(O[C@H]2c3cc(Cl)cc(Cl)c3C[C@@H]2N2CCC[C@@H](N)C2)cc1)NS(=O)(=O)c1ccc(O[C@H]2c3cc(Cl)cc(Cl)c3C[C@@H]2N2CCC[C@@H](N)C2)cc1 [Example 96, 1-(2-[2-[(2S)-2-[(4-[[(1S,2S)-2-[(3R)-3-Aminopiperidin-1-yl]-4,6-dichloro-2,3-dihydro-1H-inden-1-yl]oxy]benzene)sulfonamido]propoxy]ethoxy]ethyl)-3-(4-[[(2-[2-[(2S)-2-[(4-[[(1S,2S)-2-[(3R)-3-aminopiperidin-1-yl]-4,6-dichloro-2,3-dihydro-1H-inden-1-yl]oxy]benzene)sulfonamido]propoxy]ethoxy]ethyl)carbamoyl]amino]butyl)urea; hydrochloride]	C (>70%)		C (>70%)		< 100	< 100
C[C@H](COCCOCCNC(=O)NCCCCNC(=O)NCCOCCOC[C@@H](C)NS(=O)(=O)c1ccc(O[C@H]2c3cc(Cl)cc(Cl)c3C[C@@H]2N2CCC[C@@H](N)C2)cc1)NS(=O)(=O)c1ccc(O[C@H]2c3cc(Cl)cc(Cl)c3C[C@@H]2N2CCC[C@@H](N)C2)cc1 [Example 97, 3-(2-[2-[(2R)-2-[(4-[[(1S,2S)-2-[(3R)-3-Aminopiperidin-1-yl]-4,6-dichloro-2,3-dihydro-1H-inden-1-yl]oxy]benzene)sulfonamido]propoxy]ethoxy]ethyl)-1-(4-[[(2-[2-[(2R)-2-[(4-[[(1S,2S)-2-[(3R)-3-aminopiperidin-1-yl]-4,6-dichloro-2,3-dihydro-1H-inden-1-yl]oxy]benzene)sulfonamido]propoxy]ethoxy]ethyl)carbamoyl]amino]butyl)urea]	C (>70%)	C (NHE3 pIC50 > 7)	C (>70%)	C (NHE3 pIC50 > 7)		
CC(C)[C@@H](COCCOCCNC(=O)NCCCCNC(=O)NCCOCCOC[C@@H](NS(=O)(=O)c1ccc(O[C@H]2c3cc(Cl)cc(Cl)c3C[C@@H]2N2CCC[C@@H](N)C2)cc1)C(C)C)NS(=O)(=O)c1ccc(O[C@H]2c3cc(Cl)cc(Cl)c3C[C@@H]2N2CCC[C@@H](N)C2)cc1 [Example 98, 3-(2-[2-[(2S)-2-[(4-[[(1S,2S)-2-[(3R)-3-Aminopiperidin-1-yl]-4,6-dichloro-2,3-dihydro-1H-inden-1-yl]oxy]benzene)sulfonamido]-3-methylbutoxy]ethoxy]ethyl)-1-(4-[[(2-[2-[(2S)-2-[(4-[[(1S,2S)-2-[(3R)-3-aminopiperidin-1-yl]-4,6-dichloro-2,3-dihydro-1H-inden-1-yl]oxy]benzene)sulfonamido]-3-methylbutoxy]ethoxy]ethyl)carbamoyl]amino]butyl)urea dihydrochloride]	C (>70%)	C (NHE3 pIC50 > 7)	C (>70%)	C (NHE3 pIC50 > 7)		
CC(C)[C@H](COCCOCCNC(=O)NCCCCNC(=O)NCCOCCOC[C@H](NS(=O)(=O)c1ccc(O[C@H]2c3cc(Cl)cc(Cl)c3C[C@@H]2N2CCC[C@@H](N)C2)cc1)C(C)C)NS(=O)(=O)c1ccc(O[C@H]2c3cc(Cl)cc(Cl)c3C[C@@H]2N2CCC[C@@H](N)C2)cc1 [Example 99, 3-(2-[2-[(2R)-2-[(4-[[(1S,2S)-2-[(3R)-3-Aminopiperidin-1-yl]-4,6-dichloro-2,3-dihydro-1H-inden-1-yl]oxy]benzene)sulfonamido]-3-methylbutoxy]ethoxy]ethyl)-1-(4-[[(2-[2-[(2R)-2-[(4-[[(1S,2S)-2-[(3R)-3-aminopiperidin-1-yl]-4,6-dichloro-2,3-dihydro-1H-inden-1-yl]oxy]benzene)sulfonamido]-3-methylbutoxy]ethoxy]ethyl)carbamoyl]amino]butyl)urea]	C (>70%)	C (NHE3 pIC50 > 7)	C (>70%)			100 to 1000
CC(C)(COCCOCCNC(=O)NCCCCNC(=O)NCCOCCOCC(C)(C)NS(=O)(=O)c1ccc(O[C@H]2c3cc(Cl)cc(Cl)c3C[C@@H]2N2CCC[C@@H](N)C2)cc1)NS(=O)(=O)c1ccc(O[C@H]2c3cc(Cl)cc(Cl)c3C[C@@H]2N2CCC[C@@H](N)C2)cc1 [Example 100, 1-[2-(2-[2-[(4-[[(1S,2S)-2-[(3R)-3-Aminopiperidin-1-yl]-4,6-dichloro-2,3-dihydro-1H-inden-1 yl]oxy]benzene)sulfonamido]-2-methylpropoxy]ethoxy)ethyl]-3-[4-([[2-(2-[2-[(4-[[(1S,2S)-2-[(3R)-3-aminopiperidin-1-yl]-4,6-dichloro-2,3-dihydro-1H-inden-1-yl]oxy]benzene)sulfonamido]-2-methylpropoxy]ethoxy)ethyl]carbamoyl]amino)butyl]urea; hydrochloride]	C (>70%)	C (NHE3 pIC50 > 7)	C (>70%)	C (NHE3 pIC50 > 7)		
COc1cc(O[C@H]2c3cc(Cl)cc(Cl)c3C[C@@H]2N2CCC[C@@H](N)C2)ccc1S(=O)(=O)NCCOCCOCCNC(=O)NCCCCNC(=O)NCCOCCOCCNS(=O)(=O)c1ccc(O[C@H]2c3cc(Cl)cc(Cl)c3C[C@@H]2N2CCC[C@@H](N)C2)cc1OC [Example 101, 1-[2-(2-[2-[(4-[[(1S,2S)-2-[(3R)-3-Aminopiperidin-1-yl]-4,6-dichloro-2,3-dihydro-1H-inden-1-yl]oxy]-2-methoxybenzene)sulfonamido]ethoxy]ethoxy)ethyl]-3-[4-([[2-(2-[2-[(4-[[(1S,2S)-2-[(3R)-3-aminopiperidin-1-yl]-4,6-dichloro-2,3-dihydro-1H-inden-1-yl]oxy]-2-methoxybenzene)sulfonamido]ethoxy]ethoxy)ethyl]carbamoyl]amino)butyl]urea]	C (>70%)	C (NHE3 pIC50 > 7)	B (40-70%)	C (NHE3 pIC50 > 7)		
Cc1cc(O[C@H]2c3cc(Cl)cc(Cl)c3C[C@@H]2N2CCC[C@@H](N)C2)ccc1S(=O)(=O)NCCOCCOCCNC(=O)NCCCCNC(=O)NCCOCCOCCNS(=O)(=O)c1ccc(O[C@H]2c3cc(Cl)cc(Cl)c3C[C@@H]2N2CCC[C@@H](N)C2)cc1C [Example 102, 3-[2-(2-[2-[(4-[[(1S,2S)-2-[(3R)-3-Aminopiperidin-1-yl]-4,6-dichloro-2,3-dihydro-1H-inden-1-yl]oxy]-2-methylbenzene)sulfonamido]ethoxy]ethoxy)ethyl]-1-[4-([[2-(2-[2-[(4-[[(1S,2S)-2-[(3R)-3-aminopiperidin-1-yl]-4,6-dichloro-2,3-dihydro-1H-inden-1-yl]oxy]-2-methylbenzene)sulfonamido]ethoxy]ethoxy)ethyl]carbamoyl]amino)butyl]urea]	C (>70%)	C (NHE3 pIC50 > 7)	C (>70%)	C (NHE3 pIC50 > 7)		
